Results reported in PubChem BioAssay AID330 (DTP/NCI, 2004).
Where “and” joins values, the source holds several entries; their conditions need not be identical. Identical values can stand only once. Inconclusive results and toxic doses are left out. The calls were made as follows: active = survival T/C of 150% or more; inactive = T/C below 125% in these data.

System: P388 leukemia ip, CD2F1 mice, survival T/C
Assay: NCI In Vivo Anticancer Drug Screen. Data for tumor model P388 Leukemia (intraperitoneal) in CD2F1 (CDF1) mice
Details: endpoint: median survival time, higher = longer survival
How it was run: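 Mice carrying the transplanted tumor received test compound or vehicle. Survival was recorded in each group, and the value is the treated-group measurement divided by that of the vehicle-treated control group.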

[1] = dose: 60.0 mg/kg/injection, schedule: Q01DX005 (ip), vehicle: saline with Tween-80
[2] = dose: 120.0 mg/kg/injection, schedule: Q01DX005 (ip), vehicle: saline with Tween-80
[3] = dose: 240.0 mg/kg/injection, schedule: Q01DX005 (ip), vehicle: saline with Tween-80
[4] = dose: 50.0 mg/kg/injection, schedule: Q01DX009 (ip), vehicle: saline with Tween-80
[5] = dose: 50.0 mg/kg/injection, schedule: Q01DX005 (ip), vehicle: saline with Tween-80
[6] = dose: 100.0 mg/kg/injection, schedule: Q01DX005 (ip), vehicle: saline with Tween-80
[7] = dose: 200.0 mg/kg/injection, schedule: Q01DX005 (ip), vehicle: saline with Tween-80
[8] = dose: 50.0 mg/kg/injection, schedule: Q01DX005 (ip), vehicle: saline
[9] = dose: 200.0 mg/kg/injection, schedule: Q01DX005 (ip), vehicle: saline

Measured: T/C

CC1=CC2(C)OC3C(=O)N(c4ccc(Cl)cc4)C(=O)C3C2N=C1 (stereo not drawn)
inactive: [1] 104 % of control | [2] 99 % of control | [3] 100 % of control

CCOC(=O)C(c1ccccc1)(S(C)(=O)=O)S(C)(=O)=O
inactive: dose: 12.5 mg/kg/injection, schedule: Q01DX009 (ip), vehicle: saline with Tween-80 108 % of control | dose: 25.0 mg/kg/injection, schedule: Q01DX009 (ip), vehicle: saline with Tween-80 112 % of control | [4] 104 % of control

CC(C)C/C=N/N(C)C=O
inactive: dose: 100.0 mg/kg/injection, schedule: Q04DX002 (ip), vehicle: saline 100 % of control | dose: 200.0 mg/kg/injection, schedule: Q04DX002 (ip), vehicle: saline 100 % of control | dose: 400.0 mg/kg/injection, schedule: Q04DX002 (ip), vehicle: saline 103 % of control

COc1ccc(N=Nc2c(-c3cccs3)nn(C(=S)SC)c2C(F)(F)F)cc1
inactive: dose: 7.5 mg/kg/injection, schedule: Q01DX005 (ip), vehicle: saline with Tween-80 101 % of control | dose: 15.0 mg/kg/injection, schedule: Q01DX005 (ip), vehicle: saline with Tween-80 108 % of control | dose: 30.0 mg/kg/injection, schedule: Q01DX005 (ip), vehicle: saline with Tween-80 95 % of control

C1CCC(CCCCc2nn[nH]n2)CC1
inactive: [5] 102 % of control | [6] 100 % of control

O=COCC(C(=O)O)c1ccccc1 (stereo not drawn)
inactive: [5] 102 % of control | [6] 94 % of control | [7] 95 % of control

O=C1c2ccccc2C(=O)N1CC1CC(S(=O)(=O)c2ccccc2)=NO1 (stereo not drawn)
inactive: [5] 94 % of control | [6] 94 % of control | [7] 102 % of control

O=C1NC(=O)c2ccc3c4ccc5c6c(ccc(c7ccc1c2c73)c46)c(=O)n1c2ccccc2nc51
inactive: dose: 90.0 mg/kg/injection, schedule: Q01DX001 (ip), vehicle: Klucel (hydroxypropylcellulose) (HPC) 94 % of control | dose: 180.0 mg/kg/injection, schedule: Q01DX001 (ip), vehicle: Klucel (hydroxypropylcellulose) (HPC) 94 % of control | dose: 360.0 mg/kg/injection, schedule: Q01DX001 (ip), vehicle: Klucel (hydroxypropylcellulose) (HPC) 92 % of control

C1=NN2C3c4ccccc4C(C1)C32 (stereo not drawn)
inactive: dose: 100.0 mg/kg/injection, schedule: Q01DX001 (ip), vehicle: Klucel (hydroxypropylcellulose) (HPC) 109 % of control | dose: 200.0 mg/kg/injection, schedule: Q01DX001 (ip), vehicle: Klucel (hydroxypropylcellulose) (HPC) 113 % of control

O=C(O)C(c1ccccc1)c1cccc(C(C(=O)O)c2ccccc2)n1 (stereo not drawn)
inactive: [1] 105 % of control | [2] 100 % of control | [3] 102 % of control

COC(=O)C1(C)CCCC2(C)c3cc(OC)ccc3C3(CC12)SCCS3 (stereo not drawn)
inactive: dose: 10.0 mg/kg/injection, schedule: Q01DX009 (ip), vehicle: saline with Tween-80 95 % of control | dose: 20.0 mg/kg/injection, schedule: Q01DX009 (ip), vehicle: saline with Tween-80 99 % of control | dose: 40.0 mg/kg/injection, schedule: Q01DX009 (ip), vehicle: saline with Tween-80 103 % of control

CC(=O)c1ccc2ccccc2n1
inactive: dose: 25.0 mg/kg/injection, schedule: Q01DX009 (ip), vehicle: other 102 % of control | dose: 50.0 mg/kg/injection, schedule: Q01DX009 (ip), vehicle: other 105 % of control | dose: 100.0 mg/kg/injection, schedule: Q01DX009 (ip), vehicle: other 111 % of control | dose: 200.0 mg/kg/injection, schedule: Q01DX009 (ip), vehicle: other 114 % of control | dose: 400.0 mg/kg/injection, schedule: Q01DX009 (ip), vehicle: other 114 % of control

CCOC(=O)C(C(=O)OCC)=C(C)/C=C/C(Cl)(Cl)Cl
inactive: dose: 100.0 mg/kg/injection, schedule: Q04DX002 (ip), vehicle: saline with Tween-80 110 % of control | dose: 200.0 mg/kg/injection, schedule: Q04DX002 (ip), vehicle: saline with Tween-80 102 % of control | dose: 400.0 mg/kg/injection, schedule: Q04DX002 (ip), vehicle: saline with Tween-80 98 % of control

Cn1c2ccccc2c(=O)c2c(O)cc3c(c21)C=CC(C)(C)O3
inactive: dose: 0.38 mg/kg/injection, schedule: Q01DX009 (ip), vehicle: Klucel (hydroxypropylcellulose) (HPC) 107 % of control | dose: 0.38 mg/kg/injection, schedule: Q01DX009 (ip), vehicle: saline with Tween-80 95 % of control | dose: 0.75 mg/kg/injection, schedule: Q01DX009 (ip), vehicle: Klucel (hydroxypropylcellulose) (HPC) 102 % of control and 97 % of control | dose: 0.75 mg/kg/injection, schedule: Q01DX009 (ip), vehicle: saline with Tween-80 98 % of control | dose: 1.5 mg/kg/injection, schedule: Q01DX009 (ip), vehicle: Klucel (hydroxypropylcellulose) (HPC) 99 % of control and 103 % of control | dose: 1.5 mg/kg/injection, schedule: Q01DX009 (ip), vehicle: saline with Tween-80 94 % of control | dose: 1.56 mg/kg/injection, schedule: Q01DX009 (ip), vehicle: Klucel (hydroxypropylcellulose) (HPC) 124 % of control | dose: 3.0 mg/kg/injection, schedule: Q01DX009 (ip), vehicle: Klucel (hydroxypropylcellulose) (HPC) 102 % of control and 103 % of control | dose: 3.0 mg/kg/injection, schedule: Q01DX009 (ip), vehicle: saline with Tween-80 94 % of control | dose: 3.12 mg/kg/injection, schedule: Q01DX009 (ip), vehicle: Klucel (hydroxypropylcellulose) (HPC) 101 % of control | dose: 6.25 mg/kg/injection, schedule: Q01DX009 (ip), vehicle: Klucel (hydroxypropylcellulose) (HPC) 102 % of control | dose: 12.5 mg/kg/injection, schedule: Q01DX009 (ip), vehicle: Klucel (hydroxypropylcellulose) (HPC) 100 % of control

CCC[N+]1=C/c2ccccc2OC(=O)/C=C\1[O-]
inactive: [1] 101 % of control | [2] 99 % of control | [3] 100 % of control

O=c1[nH]oc(=O)[nH]1
inactive: dose: 6.25 mg/kg/injection, schedule: Q01DX005 (ip), vehicle: saline 95 % of control | dose: 12.5 mg/kg/injection, schedule: Q01DX005 (ip), vehicle: saline 97 % of control | dose: 25.0 mg/kg/injection, schedule: Q01DX005 (ip), vehicle: saline 94 % of control | [8] 100 % of control and 91 % of control | [9] 100 % of control

COC(=O)C1=CN2CCc3c([nH]c4ccccc34)C2(C)C2CN3CCc4c([nH]c5ccccc45)C3CC12 (stereo not drawn)
inactive: dose: 2.25 mg/kg/injection, schedule: Q01DX009 (ip), vehicle: Klucel (hydroxypropylcellulose) (HPC) 98 % of control | dose: 4.5 mg/kg/injection, schedule: Q01DX009 (ip), vehicle: Klucel (hydroxypropylcellulose) (HPC) 106 % of control | dose: 9.0 mg/kg/injection, schedule: Q01DX009 (ip), vehicle: Klucel (hydroxypropylcellulose) (HPC) 113 % of control | dose: 18.0 mg/kg/injection, schedule: Q01DX009 (ip), vehicle: Klucel (hydroxypropylcellulose) (HPC) 92 % of control | dose: 36.0 mg/kg/injection, schedule: Q01DX009 (ip), vehicle: Klucel (hydroxypropylcellulose) (HPC) 98 % of control

N#CCC(=O)N/N=C(\CC1(O)C(=O)Nc2c(Cl)cc(Cl)cc21)c1cccc2ccccc12 (stereo not drawn)
inactive: dose: 12.5 mg/kg/injection, schedule: Q01DX005 (ip), vehicle: saline with Tween-80 90 % of control | dose: 25.0 mg/kg/injection, schedule: Q01DX005 (ip), vehicle: saline with Tween-80 89 % of control | [5] 88 % of control | [6] 88 % of control

O=C(O)CNC(CO)(CO)CO
inactive: dose: 60.0 mg/kg/injection, schedule: Q01DX005 (ip), vehicle: saline 102 % of control | dose: 120.0 mg/kg/injection, schedule: Q01DX005 (ip), vehicle: saline 100 % of control | dose: 240.0 mg/kg/injection, schedule: Q01DX005 (ip), vehicle: saline 97 % of control

CC(O)C(C(c1ccccc1)N1CCOCC1)N1CCOCC1 (stereo not drawn)
inactive: dose: 50.0 mg/kg/injection, schedule: Q01DX005 (ip), vehicle: Klucel (hydroxypropylcellulose) (HPC) 99 % of control | dose: 100.0 mg/kg/injection, schedule: Q01DX005 (ip), vehicle: Klucel (hydroxypropylcellulose) (HPC) 90 % of control | dose: 200.0 mg/kg/injection, schedule: Q01DX005 (ip), vehicle: Klucel (hydroxypropylcellulose) (HPC) 98 % of control

CC(C)(C)N=C(CCN1CCN(c2ccccc2)CC1)Nc1ccccc1Cl
inactive: [4] 109 % of control | dose: 100.0 mg/kg/injection, schedule: Q01DX009 (ip), vehicle: saline with Tween-80 108 % of control | dose: 200.0 mg/kg/injection, schedule: Q01DX009 (ip), vehicle: saline with Tween-80 100 % of control

O=C(CC(C(=O)O)N1CCNCC1)c1ccc(Cl)cc1 (stereo not drawn)
inactive: [8] 100 % of control | dose: 100.0 mg/kg/injection, schedule: Q01DX005 (ip), vehicle: saline 107 % of control | [9] 101 % of control

CSc1nc(N)c(-c2ccc([N+](=O)[O-])cc2)s1
inactive: [1] 97 % of control | [2] 97 % of control | [3] 97 % of control
